From publication PMC8618356, “Optimization, Characterization and Pharmacokinetic Study of Meso-Tetraphenylporphyrin Metal Complex-Loaded PLGA Nanoparticles” (International Journal of Molecular Sciences, 2021)
Like-named read-outs stand apart in the source and are kept apart here.

Tests used:
[1] = system: HeLa, MCF-7, and SK-OV-3 cells; experiment: Cytotoxicity, MTT assay; format: cell-based, human; settings: all examined cell lines, 72 h
Method: The cancer cell lines HeLa (human cervical carcinoma), MCF-7 (human breast adenocarcinoma), and SK-OV-3 (human ovarian carcinoma) were purchased from the American Type Culture Collection (ATCC, Manassas, VA, USA). Cells were maintained in DMEM medium supplemented with 10% fetal bovine serum and gentamycin (50 μg/mL). Cells were maintained in plastic 25 cm^2 cell culture flasks at 37 °C in a humidified atmosphere containing 5% CO2. HeLa, MCF-7, and SK-OV-3 cells were plated before reaching 80% confluence using trypsin/EDTA solution.
MCF-7, SK-OV-3, and HeLa cells were plated in 96-well plates (5000 cells per well) one day before the experiment and incubated under standard conditions. MeP and MeP-NPs were added in triplets in the concentration range 0.125–100 μM (according to the MeP concentration) and incubated for 2 h. To determine cytotoxicity, cells were treated with AA alone or in combination with MeP in a molar ratio of 1:20 to MeP and then incubated for 72 h. Cell survival was determined using the standard MTT assay. Cell viability was determined as the percent of untreated control. Mean survival values were calculated in Excel (Microsoft Corporation, Redmond, Washington, DC, USA)) and data visualization was performed in OriginPro (version 2020b, OriginLab Corp., Northampton, MA, USA).

[2] = rat, in vivo, iv
Method: The MeP and MeP-NPs were administered via the lateral tail vein at tahe dose of 12.5 (NiTPP, CoTPP, and corresponding NPs at the equivalent dose) and 6.3 mg/kg (MnClTPP and MnClTPP-NPs at the equivalent dose).
Female Wistar rats (body weight 220–240 g) were supplied by Stolbovaya animal facility (Branch of the Scientific Center of Biomedical Technologies of the Federal Medical Biological Agency (Moscow, Russia)). The animals were kept under controlled conditions (temperature of 22 ± 2 °C and relative humidity of 50 ± 10%) with free access to water and standard pellet feed.
The MeP and MeP-NPs pharmacokinetics study was accomplished using randomly divided rat groups (n = 3). Blood samples (50 μL) were collected before injection and after at different time points: 0.25, 0.50, 1.0, 3.0, 6.0, 24.0, and 48.0 h. The blood samples were diluted to 1.0 mL and analyzed with ICP-MS (Agilent 7500C, Agilent Technologies, Tokyo, Japan) [112]. The sample introduction system consisted of a robust Babington nebulizer with a Scott spray chamber (Agilent Technologies, Tokyo, Japan) cooled by a Peltier element (2 °C). The data were acquired and processed with the ICP-MS ChemStation (Agilent Technologies, version G1834B; Santa Clara, CA, USA) software package. The internal standard method was applied in order to take into account the effect of the matrix; Rh was used as internal standard. For dilution of the whole blood samples and standard solution, the mixture of 0.1% Triton X-100–1% HNO3 was used. The same solution was used as the mobile phase of the mass spectrometer.
The pharmacokinetic parameters of MeP were estimated using standard non-compartmental methods [113]. The volume of distribution (Vd), mean residence time (MRT), elimination half-life (t1/2), and area under the plasma concentration–time curve from 0 h to infinity (AUCinf) were determined after intravenous administration of MeP-loaded NPs to animals. All calculations were performed using the PKSolver add-in program for Microsoft Excel [114].

BALB/c female mice = experiment: Acute toxicity analysis; format: in vivo; settings: i.v. tail vein, 24 h
Method: All experimental procedures with animals (mice and rats) were performed according to the University Ethics Committee for the use of experimental animals and animal studies were carried out as per the guidelines of the European Medicines Agency, Amsterdam, the Netherlands.
MeP and MeP-NP acute toxicity analysis was accomplished using randomly divided mice groups (n = 3). The samples were diluted in PBS and injected (200 μL) via the lateral tail vein. Due to poor water solubility, MePs were preliminarily dissolved in DMSO and Tween 80: the final solution represented 5% v/v DMSO and 2% Tween 80 v/v in PBS. Survival was registered for 24 h after injection.

[3] = MeP loading content and encapsulation efficiency of PLGA NPs (spectrophotometry); format: physicochemical; settings: optimized MeP-loaded PLGA NPs; for MeP loading content (LC): observed data
Method: EE and LC calculation is a critical stage in NP analysis, evaluating the MeP amount in NPs’ core. The EE of MeP was determined by dissolving 4 mg of NPs in 4 mL of distilled water followed by centrifugation at 5000× g for 3 min and subsequent lyophilization. The optical density of the sediment and supernatant was assessed at 465 nm for MnClTPP, 433 nm for NiTPP, and 428 nm for CoTPP. The entrapment efficiency of MeP (EE) was calculated according to Equation (9):(9) EE (%)=The mass of MeP in the nanoparticles, mg/The mass of the nanoparticles weight, mg ∗100%
MeP LC corresponded to the optical density of 4 mg of lyophilized NPs in 4 mL of DMSO. Subsequent absorption analysis was performed as indicated earlier and LC calculated according to the following Equation (10): (10) LC (%) = Absorbance∗VDMSO/ε∗msample∗100% where VDMSO is the total volume of suspension containing NPs (L), ε is the extinction coefficient of MeP in DMSO (ε = 116,280 M^−1 cm^−1 for MnClTPP, ε = 36,797 M^−1 cm^−1 for NiTPP, ε = 87,448 M^−1 cm^−1 for CoTPP), and msample is the NPs mass (g).

[4] = In vitro release study of MeP-loaded NPs in PBS pH 7.4 with 0.1% Tween 80; format: physicochemical; settings: for release rate constant kк (Korsmeyer–Peppas model) / release exponent n (Korsmeyer–Peppas model): MeP release from MeP-loaded PLGA NPs; for release rate constant kк (Korsmeyer–Peppas model): PBS pH 7.4, 0.1% Tween 80, 37 °C; for release exponent n (Korsmeyer–Peppas model): less than 0.43 = Fickian diffusion; for duration of the fast (rapid) release phase: biphasic release from MeP-loaded NPs
Excerpt: We analyzed the release according to the method of Abouelmag et al. using a phosphate-buffered saline (PBS) pH 7.4 containing 0.1% Tween 80 (Figure 8) as a release medium.
We determined the MeP release mechanisms by fitting the data obtained by applying several release kinetic models (Table 7). […] The release exponent values were n = 0.01 for NiTPP, n = 0.06 for CoTPP, and n = 0.11 for MnClTPP, and less than 0.43, indicating Fickian diffusion of MeP [92].
The time-dependent release of MeP was analyzed by dissolving 3 mg of NPs in 1 mL of PBS (0.01 M, pH 7.4) and incubation in a dark glass bottle containing 40 mL of PBS (0.01 M, pH 7.4) and 0.1% (w/v) Tween 80 solution. The probes were kept on a shaker incubator at 90 rpm and 37 °C. Aliquots of 1 mL of media were taken at 0, 0.25, 0.5, 0.75, 1, 1.5, 2, 3, 4, 24, 48, 72, 120, 144, and 192 h and replenished with 1 mL of fresh PBS. The collected aliquots were centrifuged for 3 min at 5000× g at 37 °C. The supernatants were removed and lyophilized as well as the sediments. The amount of MeP released at each time point was calculated as described above according to optical absorption.

[5] = as above; format: physicochemical; settings: after 180 h

SMILES | cytotoxicity alone, without combination (in words) [1] | AUCinf ([2]; 12.5 mg/kg) | MRT ([2]; 12.5 mg/kg) [h] | Vd ([2]; 12.5 mg/kg) [L/kg] | t1/2 ([2]; 12.5 mg/kg) [h] | Mice Survived (BALB/c female mice; 6.25 mg/kg) | Mice Survived (BALB/c female mice; 12.5 mg/kg) | Mice Survived (BALB/c female mice; 25 mg/kg) | Mice Survived (BALB/c female mice; 50 mg/kg) | encapsulation efficiency (EE) [3] [%] | MeP loading content (LC) [3] [%] | release rate constant kк (Korsmeyer–Peppas model) [4] [h⁻¹] | release exponent n (Korsmeyer–Peppas model) [4] | duration of the fast (rapid) release phase [4] [min] | AUCinf ([2]; 6.3 mg/kg) | MRT ([2]; 6.3 mg/kg) [h] | Vd ([2]; 6.3 mg/kg) [L/kg] | t1/2 ([2]; 6.3 mg/kg) [h] | MeP released from NPs [5] [%]
O=C1O[C@H]([C@@H](O)CO)C(O)=C1O [AA, ascorbic acid] | lacked cell growth inhibition | – | – | – | – | – | – | – | – | – | – | – | – | – | – | – | – | – | –
C1=Cc2nc1c(-c1ccccc1)c1ccc([n-]1)c(-c1ccccc1)c1nc(c(-c3ccccc3)c3ccc([n-]3)c2-c2ccccc2)C=C1.[Co+2] [CoTPP] | – | 60,370 ± 18,111 (µg/mL) (h) | 27 ± 7 | 0.003 ± 0.001 | 17 ± 4 | 3/3 | 3/3 | 2/3 | 0/3 | 79.7 | 8.7 | 74.3 | 0.06 | 30 | – | – | – | – | –
C1=Cc2nc1c(-c1ccccc1)c1ccc([n-]1)c(-c1ccccc1)c1nc(c(-c3ccccc3)c3ccc([n-]3)c2-c2ccccc2)C=C1.[Cl-].[Mn+3] [MnClTPP, MnCl3-tetraphenylporphyrin chloride] | – | – | – | – | – | 3/3 | 3/3 | 3/3 | 2/3 | 79.9 | 28.9 | 49.4 | 0.11 | 15 | 15,362 ± 5377 (µg/mL) (h) | 62 ± 21 | 0.013 ± 0.004 | 44 ± 14 | 80
C1=Cc2nc1c(-c1ccccc1)c1ccc([n-]1)c(-c1ccccc1)c1nc(c(-c3ccccc3)c3ccc([n-]3)c2-c2ccccc2)C=C1.[Ni+2] [NiTPP] | – | 612 ± 184 (µg/mL) (h) | 25 ± 6 | 2.683 ± 0.805 | 19 ± 6 | 3/3 | 3/3 | 1/3 | 0/3 | – | 11.1 | 91.3 | 0.01 | 30 | – | – | – | – | –
